The nature of data set [1]: Hematic levels at different times after oral administration (absorption). Type of data set: in vivo, Wistar rat. The conditions noted are these: 100 mg/kg expressed as vincamine/apovincamine, 5% carboxymethyl cellulose suspension. The protocol:
(§1) For the compounds of the present invention a number of pharmacological and pharmacokinetic tests have been carried out. […] As regards the pharmacological and pharmacodynamic activity, it has been studied on the percent variations of the hematic flow, as recorded at the vertebral arteria in the dog after administration of the tested compounds. As regards the pharmacokinetic tests, the compounds were administered per oral route to the Wistar rat, and the hematic levels at different times from the administration were measured.
For the evaluation of the absorption, all the compounds have been orally administered at the dosage of 100 mg/kg, expressed as vincamine and apovincamine, in form of a suspension in a 5% carboxymethyl cellulose solution.
The absorption was determined by evaulating the hematic levels at the following times (minutes) : 0, 30, 120, 240, 480, 10 hours and 12 hours, in order also to assess the time from the administration (max conc.time) the maximum absorption occurred.
The vincamine and apovincamine concentrations were assessed by chromatographic method.
For the evaluation of the prolonged action of the salts and of the adducts of vincamine and apovincamine the following criterium was adopted; as derivatives having a long-acting effect, there are considered those which, 120 minutes after the administration, show hematic levels higher than those obtained with vincamine and apovincamine.

For a further data set, the system named is vertebral arteria. The data set is described as follows: Cerebral vasodilating activity: hematic flow at the vertebral arteria after i.v. administration. Type of data set: in vivo. To be noted: i.v. (femoral vein), 5 mg/kg of vincamine/apovincamine, anesthetized dog, 4 animals per compound. Here is the method: as §1
The cerebral vasodilating activity was studied in the anestetized dog, by measuring, by means of Statham periarterial electromagnetic flowmeters, the hematic flow at the level of the […] which, in such animal species, constitutes the greatest blood supply to the brain.
The resuls are reported in the TABLE 2 (last column) as the percent variations of the flow measured at the level of the ledt vertebral arteria after the i.v. administration of the several compounds to be tested to groups of 4 animals for each compound. The results also confirm that the compounds of the invention are all endowed with a vasodilating activity at the level of the cerebral circulus, such an action being, for some compounds, much more remarkable than that of vincamine and apovincamine.

A short description of data set [2]: LD50 / acute toxicity, intraperitoneal route. Type of data set: in vivo. To be noted: i.p.; for Toxicity (Gleason): Gleason class in words, classes not defined.
A further data set in a line: Solubility. Type of data set: physicochemical. To be noted: qualitative; for solubility in alcohol: alcohol (ethyl alcohol).

Where a name gives a salt, the structure may show the parent alone.

These results are taken from patent US4122179A, “Acid addition salts of vincamine and apovincamine” (priority 1976, dated 1978).

In the case of `CC[C@]12CCCN3CCc4c(n(c5ccccc45)[C@@](O)(C(=O)OC)C1)[C@@H]32` [Example 16.a, Vincamine acetylsalicylate], the Max. conc. time in data set [1] (100 mg/kg) came to 20 min. In addition, in the data set on vertebral arteria (5 mg/kg), the “% increase (percent variation of hematic flow, left vertebral arteria)” value was 31.7%. In addition, in data set [2], the LD50 is reported as 900 mg/kg and the “Toxicity (Gleason)” value is “modest”. Besides, the “solubility in the common (organic) solvents” value (“solubility in the common” below) in “Solubility” was “poorly soluble”.
Turning to `CC[C@]12CCCN3CCc4c(n(c5ccccc45)[C@@](O)(C(=O)OC)C1)[C@@H]32` [Example 22.a, Vincamine caprate], the Max. conc. time in data set [1] (100 mg/kg) is 120 min. In the data set on vertebral arteria (5 mg/kg), the “% increase (percent variation of hematic flow, left vertebral arteria)” value was 23.9%. Further, in data set [2], the 50% lethal dose (LD50) came to 2000 mg/kg and the “Toxicity (Gleason)” value is reported as “negligible”. Further, in “Solubility”, the “solubility in the common” value is given as “insoluble” and the solubility in water result is given as “insoluble”.
Molecule `CC[C@]12CCCN3CCc4c(n(c5ccccc45)[C@@](O)(C(=O)OC)C1)[C@@H]32` [Example 19.a, Vincamine p-chlorophenoxyacetate] returned a Max. conc. time in data set [1] (100 mg/kg) of 480 min. Moreover, the “% increase (percent variation of hematic flow, left vertebral arteria)” value in the data set with vertebral arteria (5 mg/kg) turned out to be 22.0%. In data set [2], the LD50 was 750 mg/kg and the “Toxicity (Gleason)” value is recorded as “modest”. Further, in the data set “Solubility”, the solubility in alcohol entry is recorded as “soluble”, the “solubility in the common” value is listed as “insoluble” and the solubility in water entry is reported as “insoluble”.
For the molecule Vincamine alginate [Example 23.a], the Max. conc. time in data set [1] came to 20 min. Further, the “% increase (percent variation of hematic flow, left vertebral arteria)” value in the data set with vertebral arteria came to 34.7%. Also, in data set [2], the LD50 worked out at 550 mg/kg and the “Toxicity (Gleason)” value is recorded as “modest”. Moreover, in “Solubility”, the “solubility in the common” value is “insoluble” and the solubility in water entry is given as “insoluble”.
In data set [1] (100 mg/kg), `CC[C@]12CCCN3CCc4c(n(c5ccccc45)[C@@](O)(C(=O)OC)C1)[C@@H]32` [Example 9.a, Vincamine clofibrate (2-(p-chlorophenoxy)-2-methylpropionate)] registered a Max. conc. time of 480 min. For the same molecule, the “% increase (percent variation of hematic flow, left vertebral arteria)” value in the data set on vertebral arteria (5 mg/kg) is reported as 22.1%. Moreover, in data set [2], the LD50 is on record as 900 mg/kg and the “Toxicity (Gleason)” value was “modest”. Besides, in “Solubility”, the solubility in alcohol entry is “soluble” and the solubility in water entry is given as “insoluble”.
In turn, `CC[C@@]12C=C(C(=O)OC)n3c4c(c5ccccc53)CCN(CCC1)[C@H]42` [Example 4.b, Apovincamine glucose-1-phosphate, acid salt] yielded a Max. conc. time in data set [1] (100 mg/kg) of 240 min. In addition, in the data set with vertebral arteria (5 mg/kg), the “% increase (percent variation of hematic flow, left vertebral arteria)” value was 26.1%. Also, in data set [2], the 50% lethal dose (LD50) is 600 mg/kg and the “Toxicity (Gleason)” value is on record as “modest”. Moreover, the solubility in water result in “Solubility” is on record as “soluble”.
In turn, `CC[C@@]12C=C(C(=O)OC)n3c4c(c5ccccc53)CCN(CCC1)[C@H]42` [Example 6.b, Apovincamine 2,5-dihydroxybenzoate] registered a Max. conc. time in data set [1] (100 mg/kg) of 240 min. For the same molecule, in the data set with vertebral arteria (5 mg/kg), the “% increase (percent variation of hematic flow, left vertebral arteria)” value is recorded as 30.9%. In data set [2], the LD50 came to 750 mg/kg and the “Toxicity (Gleason)” value was “modest”. Further, in the data set “Solubility”, the solubility in alcohol result is listed as “insoluble” and the solubility in water entry is reported as “insoluble”.
Regarding `CC[C@@]12C=C(C(=O)OC)n3c4c(c5ccccc53)CCN(CCC1)[C@H]42` [Example 2.b, Apovineamine 2,4-dihydroxy-benzoate], in data set [1] (100 mg/kg), the Max. conc. time is 120 min. Also, in the data set on vertebral arteria (5 mg/kg), the “% increase (percent variation of hematic flow, left vertebral arteria)” value turned out to be 29.0%. Further, in data set [2], the LD50 is on record as 650 mg/kg and the “Toxicity (Gleason)” value is reported as “modest”. Moreover, in the data set “Solubility”, the solubility in alcohol result is “soluble” and the “solubility in the common” value was “not”.
As to `CC[C@@]12C=C(C(=O)OC)n3c4c(c5ccccc53)CCN(CCC1)[C@H]42` [Example 5.b, Apovincamine 2,6-dihydroxybenzoate], the Max. conc. time in data set [1] (100 mg/kg) is 120 min. The “% increase (percent variation of hematic flow, left vertebral arteria)” value with vertebral arteria (5 mg/kg) is 25.4%. For the same molecule, in data set [2], the LD50 was found to be 750 mg/kg and the “Toxicity (Gleason)” value is “modest”. In addition, in the data set “Solubility”, the solubility in alcohol result was “poorly soluble” and the solubility in water result is reported as “insoluble”.
`CC[C@]12CCCN3CCc4c(n(c5ccccc45)[C@@](O)(C(=O)OC)C1)[C@@H]32` [Example 25.a, Vincamine (D,L)-mandelate] gave a Max. conc. time in data set [1] (100 mg/kg) of 20 min. Besides, the “% increase (percent variation of hematic flow, left vertebral arteria)” value in the data set on vertebral arteria (5 mg/kg) was 39.4%. In data set [2], the 50% lethal dose (LD50) is recorded as 900 mg/kg and the “Toxicity (Gleason)” value is “modest”. Moreover, in the data set “Solubility”, the solubility in alcohol result is on record as “soluble”, the “solubility in the common” value was “insoluble” and the solubility in water entry was “insoluble”.
Turning to `CC[C@@]12C=C(C(=O)OC)n3c4c(c5ccccc53)CCN(CCC1)[C@H]42` [Example 3.b, Apovincamine glucose-1-phosphate], the Max. conc. time in data set [1] (100 mg/kg) was 120 min. The “% increase (percent variation of hematic flow, left vertebral arteria)” value in the data set on vertebral arteria (5 mg/kg) is given as 26.4%. In data set [2], the LD50 was found to be 850 mg/kg and the “Toxicity (Gleason)” value is reported as “modest”. Further, the solubility in water entry in “Solubility” was “soluble”.
`CC[C@@]12C=C(C(=O)OC)n3c4c(c5ccccc53)CCN(CCC1)[C@H]42` [Example 26.b, Apovincamine indolyl-3-acetate]: the Max. conc. time in data set [1] (100 mg/kg) turned out to be 120 min. In the data set with vertebral arteria (5 mg/kg), the “% increase (percent variation of hematic flow, left vertebral arteria)” value amounted to 28.7%. In data set [2], the LD50 was determined as 750 mg/kg and the “Toxicity (Gleason)” value is on record as “modest”. In addition, in “Solubility”, the solubility in alcohol result was “poorly soluble” and the solubility in water entry was “insoluble”.
Turning to `CC[C@]12CCCN3CCc4c(n(c5ccccc45)[C@@](O)(C(=O)OC)C1)[C@@H]32` [Example 3.a, Vincamine glucose-1-phosphate], in data set [1] (100 mg/kg), the Max. conc. time stood at 240 min. Further, the “% increase (percent variation of hematic flow, left vertebral arteria)” value in the data set on vertebral arteria (5 mg/kg) stood at 29.0%. Besides, in data set [2], the median lethal dose (LD50) was 1150 mg/kg and the “Toxicity (Gleason)” value is given as “light”. Also, the solubility in water result in “Solubility” is “partially soluble”.
For `CC[C@@]12C=C(C(=O)OC)n3c4c(c5ccccc53)CCN(CCC1)[C@H]42` [Example 9.b, Apovincamine clofibrate], the Max. conc. time in data set [1] (100 mg/kg) worked out at 480 min. In the data set with vertebral arteria (5 mg/kg), the “% increase (percent variation of hematic flow, left vertebral arteria)” value worked out at 28.3%. In addition, in data set [2], the median lethal dose (LD50) worked out at 800 mg/kg and the “Toxicity (Gleason)” value was “light”. In addition, in the data set “Solubility”, the solubility in alcohol entry is “soluble” and the solubility in water result is on record as “insoluble”.
On to `CC[C@]12CCCN3CCc4c(n(c5ccccc45)[C@@](O)(C(=O)OC)C1)[C@@H]32` [Example 4.a, Vincamine glucose-1-phosphate, acid salt], for which, in data set [1] (100 mg/kg), the Max. conc. time was 240 min. The “% increase (percent variation of hematic flow, left vertebral arteria)” value in the data set with vertebral arteria (5 mg/kg) turned out to be 26.6%. In data set [2], the LD50 came out at 700 mg/kg and the “Toxicity (Gleason)” value is reported as “modest”. For the same molecule, the solubility in water result in the data set “Solubility” was “soluble”.
As to Apovincamine alginate [Example 23.b], in data set [1], the Max. conc. time was 60 min. Also, the “% increase (percent variation of hematic flow, left vertebral arteria)” value in the data set with vertebral arteria was determined as 38.0%. Besides, in data set [2], the LD50 turned out to be 750 mg/kg and the “Toxicity (Gleason)” value is “modest”. In the data set “Solubility”, the solubility in alcohol entry is listed as “insoluble” and the solubility in water result is listed as “insoluble”.
